Laboratory results: patent US20170304396A1, “AQUEOUS SOLUTION FORMULATIONS OF VANCOMYCIN” (priority 2015, published 2017)
Values after ≈ are worked out from the molar mass of the structure shown. Structures can show the parent of a compound that is named as a salt.

What was measured:
[1] = physchem
Description: As used herein, “molecular complex” means a special interaction between two molecules that are not covalently bonded. […] One of the methods to detect molecular complex formation is the phase solubility diagram which measures changes in solubility of one molecule (“substrate”) as a function of the other molecule (“complexing agent”) (T. Higuchi and J. L. Lach, J. Am. Pharm. Assoc., Sci. Ed. 43, 349, 525, 527, 1954).
In addition, this study intended to determine the stoichiometric ratio of such molecular complex formed. To obtain a phase solubility diagram of tryptophan, pre-calculated amounts of tryptophan, vancomycin and water were added into a plastic tube to form a suspension in which vancomycin was completed dissolved but tryptophan was not completed dissolved, the suspension was adjusted to pH 6.2, mixed at room temperature (RT) overnight to reach dissolution/re-crystallization equilibrium, and then filtered through a 0.2-micorn filter membrane. The filtrate was diluted and analyzed by HPLC (using the USP HPLC vancomycin assay method) to determine the concentrations of tryptophan and vancomycin. The solubility of tryptophan measured and the concentration of vancomycin added measured in each suspension sample are provided in the Table below: […]

[2] = Solubility in water; type: physicochemical; settings: for solubility: water
[3] = type: physicochemical
Experimental: The aim of this study was to compare effects of various ingredients on vancomycin stability in a solution in order to identify a stabilizer that can slow the degradation of vancomycin in solution. Each solution sample (coded with an F-#) was prepared by dissolving vancomycin HCl to 1% concentration, along with stabilizer added at the concentrations listed in the Table below. Each solution was adjusted to about pH 4.7 and stored at 2-8° C. and 50° C. for 2 days. The stability of vancomycin was indicated by vancomycin recovery (% over the initial concentration) after storage at a selected temperature. The concentration of vancomycin or vancomycin assay was measured using HPLC method (USP Vancomycin Assay method). The relative stability of vancomycin in each solution was expressed in vancomycin concentration or assay recovery (% over the initial concentration).
The aim of this study was to compare various amino acids, including tryptophan, on their effects on vancomycin stability in an aqueous solution. The solution samples were prepared and tested similarly to Example 2.
The solution samples were prepared and tested in a similar way as in Example 2. The test sample compositions and test results are shown in the Table below and the effects of tryptophan concentration on vancomycin stability are depicted graphically in FIG. 4.

[4] = test system: E. faecalis ATCC 29212; experiment: Minimum Inhibitory Concentration (CLSI); type: cell-based; settings: Example 11
Description: (§1) Standards for this method are outlined by the Clinical and Laboratory Standards Institute (CLSI). The table below describes the vancomycin solution composition used to test antibiotic potency:
(§2) Standards for this method are outlined by the Clinical and Laboratory Standards Institute (CLSI).

[5] = test system: S. aureus ATCC 25923; experiment: Minimum Inhibitory Concentration (CLSI); type: cell-based; settings: Example 11
Description: as §1, §2

[6] = Merck Index (12th edition); cited from earlier work

N[C@@H](Cc1c[nH]c2ccccc12)C(=O)O [tryptophan]
tryptophan solubility ([1]; pH 6.2): 2.2%
tryptophan solubility (estimated) ([1]; pH 6.2): ~2.5%
solubility ([1]; pH 6.2, aqueous buffer, thermodynamic from solid): ~70 mM (≈ 14.3 mg/mL)
solubility ([2]; without vancomycin, read-out: tryptophan solubility in water): ~14 mg/mL (≈ 68.6 mM)
effect of additive on vancomycin stability in solution [3]: capable of slowing down the degradation of vancomycin in solution
effect of amino acid on vancomycin stability in solution [3]: capable of slowing down the degradation of vancomycin
effect of tryptophan concentration on vancomycin stability in solution [3]: improves vancomycin stability in a concentration-dependent fashion
effect of addition of tryptophan on the MIC of vancomycin [4]: does not affect the MIC of vancomycin
effect of addition of tryptophan on the MIC of vancomycin [5]: does not affect the MIC of vancomycin

CN[C@H](CC(C)C)C(=O)N[C@H]1C(=O)N[C@@H](CC(N)=O)C(=O)N[C@H]2C(=O)N[C@H]3C(=O)N[C@H](C(=O)N[C@H](C(=O)O)c4cc(O)cc(O)c4-c4cc3ccc4O)[C@H](O)c3ccc(c(Cl)c3)Oc3cc2cc(c3O[C@@H]2O[C@H](CO)[C@@H](O)[C@H](O)[C@H]2O[C@H]2C[C@](C)(N)[C@H](O)[C@H](C)O2)Oc2ccc(cc2Cl)[C@H]1O [vancomycin hydrochloride]
solubility of vancomycin hydrochloride in water [6]: > 10 % w/v

CN[C@H](CC(C)C)C(=O)N[C@H]1C(=O)N[C@@H](CC(N)=O)C(=O)N[C@H]2C(=O)N[C@H]3C(=O)N[C@H](C(=O)N[C@H](C(=O)O)c4cc(O)cc(O)c4-c4cc3ccc4O)[C@H](O)c3ccc(c(Cl)c3)Oc3cc2cc(c3O[C@@H]2O[C@H](CO)[C@@H](O)[C@H](O)[C@H]2O[C@H]2C[C@](C)(N)[C@H](O)[C@H](C)O2)Oc2ccc(cc2Cl)[C@H]1O [vancomycin]
vancomycin solubility limit in water [2]: about 12 % w/v
solubility ([2]; read-out: vancomycin solubility limit in water): ~120 mg/mL (≈ 82.8 mM)

CC(=O)N[C@@H](Cc1c[nH]c2ccccc12)C(=O)O [N-acetyl-tryptophan]
effect of additive on vancomycin stability in solution [3]: capable of slowing down the degradation of vancomycin in solution
